From patent publication US7482344B2, “Tricyclic steroid hormone nuclear receptor modulators” (Eli Lilly and Company, priority 2003, dated 2009)

Experiments:
MR [1] = molecular target: T1, MR (Homo sapiens, UniProt P08235); test: Mineralocorticoid Receptor Binding Assay (Method 1), [3H]-aldosterone competition; set-up: The full length human MR gene is cloned from a human kidney or human brain cDNA library; made in house; host or cells: SF9 insect cells (pAcHLT baculovirus transfer vector); conditions: human MR expressed in Sf9 cells, 0.5 nM [3H]-aldosterone
T1 sequence (P08235 1-984): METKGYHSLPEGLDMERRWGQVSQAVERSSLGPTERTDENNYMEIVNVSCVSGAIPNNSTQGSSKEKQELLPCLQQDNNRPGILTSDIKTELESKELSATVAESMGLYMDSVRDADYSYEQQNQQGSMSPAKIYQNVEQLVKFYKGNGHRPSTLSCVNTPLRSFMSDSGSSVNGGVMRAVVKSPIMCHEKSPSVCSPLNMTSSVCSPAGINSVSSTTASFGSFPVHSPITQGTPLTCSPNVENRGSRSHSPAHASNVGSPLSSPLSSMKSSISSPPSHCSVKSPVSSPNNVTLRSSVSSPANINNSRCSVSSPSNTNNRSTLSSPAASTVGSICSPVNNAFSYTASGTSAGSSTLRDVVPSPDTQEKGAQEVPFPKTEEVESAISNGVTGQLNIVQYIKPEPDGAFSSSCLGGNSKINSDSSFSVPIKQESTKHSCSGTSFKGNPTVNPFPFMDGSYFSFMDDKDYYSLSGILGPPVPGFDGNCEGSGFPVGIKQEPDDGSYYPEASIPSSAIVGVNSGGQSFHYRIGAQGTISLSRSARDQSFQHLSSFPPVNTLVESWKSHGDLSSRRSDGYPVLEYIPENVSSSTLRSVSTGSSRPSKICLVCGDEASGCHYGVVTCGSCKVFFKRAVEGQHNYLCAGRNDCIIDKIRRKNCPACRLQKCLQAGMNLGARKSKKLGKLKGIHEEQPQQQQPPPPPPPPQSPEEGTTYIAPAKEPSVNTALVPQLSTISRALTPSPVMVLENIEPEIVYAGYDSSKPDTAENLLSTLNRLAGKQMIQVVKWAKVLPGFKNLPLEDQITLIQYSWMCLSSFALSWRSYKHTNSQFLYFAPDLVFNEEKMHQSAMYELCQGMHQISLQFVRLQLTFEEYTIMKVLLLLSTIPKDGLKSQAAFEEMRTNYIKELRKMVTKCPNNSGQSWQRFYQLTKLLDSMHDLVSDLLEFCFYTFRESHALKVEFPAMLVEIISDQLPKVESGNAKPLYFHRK
Protocol: Mineralocorticoid Receptor Binding Assay (Method 1):
The full length human MR gene is cloned from a human kidney or human brain cDNA library. Briefly, using synthetic oligonucleotide primers (Eli Lilly and Company, Indianapolis) directed to nucleotides 20-54 and 3700-3666 of the human MR, polymerase chain reaction (PCR) is performed under standard conditions using a human cDNA library. The PCR reaction is performed in a final volume of 50 μl containing about 1μl of a 50× stock solution of polymerase; about 1 μl of a 50× stock solution of dNTP; about 5μl of an appropriate PCR buffer; about 1 μl of each primer; about 5 μl of a H. kidney or H. brain cDNA library; and about 36 μl of water. The reaction is allowed to denature for about 30 seconds at 95 degrees Celsius, anneal for about 30 seconds at 55 degrees Celsius, and extend for about 5 minutes at 72 degrees Celsius, the sequence being repeated for a total of about 35 cycles. The desired PCR product (3.68 Kb) is confirmed by gel electrophoresis and subsequently cut from the gel and stored at about −20 degrees Celsius until extraction. To extract the cDNA product from the agarose gel, the QIAEX II Gel Extraction protocol (QIAGEN, Inc.) is employed according to the manufacturer's instructions. Following extraction, the MR cDNA is cloned into an appropriate cloning vector (Zero Blunt TOPO PCR Cloning Kit (Invitrogen, Inc.) and a pAcHLT-baculovirus transfer vector (B.D./Pharminogen), then expressed in SF9 insect cells, essentially according to manufacturer's instructions. Sf9 cells are grown at a scale where gram quantity cell pellets are obtained for subsequent use in the MR binding assay. Harvested cell pellets are lysed by repeated freeze-thaw cycles (about 4) in a suitable lysis buffer then centrifuged at about 1×10^3G (with the supernatant being saved for future assays).
MR binding assays are performed in a final total volume of about 250 μl containing about 20-25 μg of protein and 0.5 nM of [^3H]-aldosterone plus varying concentrations of test compound or vehicle. The assay binding buffer consists of 30 mM sodium molybdate, 30 mM of TRIS-HCl, 5 mM sodium phosphate, 5 mM sodium pyrophosphate, and about 10% glycerol, pH=7.5.
Briefly, assays are prepared at RT in 96-well Falcon 3072 plates, each well containing 210 μof binding buffer, 10 μl of […], 10 μl of test compound/vehicle, and 20 μl of the resuspended receptor protein extract. Incubations are carried out at 4 degrees Celsius with shaking for about 16 hours. 200 μl aliquots of each incubation are filtered onto Millipore HA 0.45 micron 96-well filter plates, pre-moistened with cold 30 mM TRIS-HCl. The filter plates are suctioned dry with vacuum and immediately washed 3× with cold 30 mM TRIS-HCl. The plates are then punched out and the amount of receptor-ligand complex is determined by liquid scintillation counting using 4 ml of Ready Protein Plus™ liquid scintillation cocktail.

glucocorticoid receptor = molecular target: T2, glucocorticoid receptor (Homo sapiens, UniProt P04150); test: Glucocorticoid Receptor Binding Assay (Method 1), [3H]-dexamethasone competition in A549 cell extract; conditions: 1.86 nM [3H]-dexamethasone, read-out: GR Ki (nM) Method 1
T2 construct: host or cells: A549 human lung epithelial cells
T2 sequence (P04150 1-777): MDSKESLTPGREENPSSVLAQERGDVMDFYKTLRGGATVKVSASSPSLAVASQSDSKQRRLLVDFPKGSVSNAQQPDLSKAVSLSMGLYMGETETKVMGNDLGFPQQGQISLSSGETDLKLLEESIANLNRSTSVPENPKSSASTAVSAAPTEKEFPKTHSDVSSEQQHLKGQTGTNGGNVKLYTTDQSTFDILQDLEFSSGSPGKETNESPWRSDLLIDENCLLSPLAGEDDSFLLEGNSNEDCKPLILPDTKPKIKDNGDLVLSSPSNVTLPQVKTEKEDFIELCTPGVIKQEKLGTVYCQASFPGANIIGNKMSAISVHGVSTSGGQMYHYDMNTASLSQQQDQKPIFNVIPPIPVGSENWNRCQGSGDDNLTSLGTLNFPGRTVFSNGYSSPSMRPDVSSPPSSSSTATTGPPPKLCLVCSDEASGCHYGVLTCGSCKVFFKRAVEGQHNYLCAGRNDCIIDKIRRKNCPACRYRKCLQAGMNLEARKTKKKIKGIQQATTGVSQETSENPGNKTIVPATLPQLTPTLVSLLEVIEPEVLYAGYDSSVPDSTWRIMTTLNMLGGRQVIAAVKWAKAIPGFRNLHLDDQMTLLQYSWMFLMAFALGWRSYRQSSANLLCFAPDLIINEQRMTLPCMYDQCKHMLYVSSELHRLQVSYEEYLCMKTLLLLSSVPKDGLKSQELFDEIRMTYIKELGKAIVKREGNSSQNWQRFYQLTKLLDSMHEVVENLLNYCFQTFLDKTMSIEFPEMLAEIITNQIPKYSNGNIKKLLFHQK
Protocol: Glucocorticoid Receptor Binding Assay (Method 1):
A549 human lung epithelial cells (ATCC) are grown at a scale where gram quantity cell pellets are obtained. Harvested cell pellets are washed twice in cold phosphate buffered saline, centrifuged, and resuspended in cold assay binding buffer. The assay binding buffer consists of 10% glycerol, 50 mM Tris-HCl (pH7.2), 75 mM sodium chloride, 1.5 mM magnesium chloride, 1.5 mM EDTA, and 10 mM sodium molybdate. Cell suspensions were lysed via sonication, centrifuged, and the “extract” supernatant is snap frozen and stored at −80 C. until needed.
GR binding assays are performed in a final volume of 140 ul containing 50-200 ug of A549 cell extract and 1.86 nM [^3H]-dexamethasone (Amersham) plus varying concentrations of test compound or vehicle. Briefly, assays are prepared at RT in 96-well Fisher 3356 plates, each well containing 100 ul of A549 cell extract, 20 ul of [^3H]-dexamethasone, and 20 ul of test compound/vehicle. Incubations are carried out at 4 degrees Celsius for 16 hours. After incubation, 70 ul of 3× dextran-coated charcoal solution is added to each reaction, mixed, and incubated for 8 minutes at RT. 3×-dextran-coated charcoal solution consists of 250 ml assay binding buffer, 3.75 g Norit A charcoal (Sigma), and 1.25 g dextran T-70 (Amersham). Charcoal/unbound radioligand complexes are removed by centrifugation of the plate and 140 ul of supernatant from each well is transferred to another 96 well Optiplate (Packard Instruments). 200 ul of Microscint-20 scinillant (Packard Instruments) is added to each well and amount of receptor bound radioligand is determined using Packard Instruments TopCount instrument.

MR [2] = molecular target: T1, MR; set-up: host or cells: patients with advanced CHF; conditions: in combination with standard CHF therapy, patients suffering from advanced CHF; cited from earlier work

Row | SMILES | Ki (MR [1]) | Ki (glucocorticoid receptor) | melting point | reduced cardiac related mortality (MR [2]) | reduced frequency of hospitalization (MR [2])
1 | CS(=O)(=O)Nc1cccc(C=C2c3ccccc3Oc3ccccc32)c1 [Example 20, N-(3-Xanthen-9-ylidenemethyl-phenyl)-methanesulfonamide] | < 500 nM | < 1000 nM | – | – | –
2 | CC(=O)S[C@@H]1CC2=CC(=O)CC[C@]2(C)[C@H]2CC[C@@]3(C)[C@@H](CC[C@@]34CCC(=O)O4)[C@H]12 [spironolactone] | – | – | – | 30% | 35%
3 | Oc1cccc(C=C2c3ccccc3Cc3ccccc32)c1 [Example 19, 3-(10H-Anthracen-9-ylidenemethyl)-phenol] | < 500 nM | < 10000 nM | 195.8 °C | – | –
4 | COc1cccc(C=C2c3ccccc3Cc3ccccc32)c1 [Example 18, 9-(3-Methoxy-benzylidene)-9,10-dihydro-anthracene] | < 500 nM | < 10000 nM | – | – | –

Now from value to compound, other results behind:

Row | Ki (MR [1]) | Ki (glucocorticoid receptor) | melting point | SMILES | reduced cardiac related mortality (MR [2]) | reduced frequency of hospitalization (MR [2])
5 | < 500 nM | – | – | O=c1[nH]c2cc(C=C3c4ccccc4Sc4ccccc43)ccc2n1-c1cccnc1 [Example 17] | – | –
6 | < 500 nM | – | – | CC(C)n1c(=O)[nH]c2cc(C=C3c4ccccc4Sc4ccccc43)ccc21 [Example 16] | – | –
